How the values were obtained:
[1] = Cytotoxicity against Swiss mouse peritoneal macrophages assessed as reduction in cell viability measured after 5 days by microscopic analysis; assay type: toxicity, cell-based, Peritoneal macrophage; settings: time 5 day
[2] = tested on: Leishmania infantum; assay: Antileishmanial activity against intracellular Leishmania infantum MHOM/MA(BE)/67 ITMAP263 amastigotes infected in Swiss mouse peritoneal macrophage assessed as inhibition of parasite growth measured after 5 days by geimsa staining based microscopic analysis; assay type: functional, organism-based; settings: MHOM/MA(BE)/67 ITMAP263, Peritoneal macrophage, 120 h
[3] = Cytotoxicity against human MRC5 cells assessed as reduction in cell viability incubated for 3 days by resazurin dye based fluorescence analysis; assay type: toxicity; settings: time 3 day
[4] = Selectivity index, ratio of CC50 for Cytotoxicity against Swiss mouse peritoneal macrophages to EC50 for intracellular Leishmania infantum MHOM/MA(BE)/67 ITMAP263 amastigotes infected in Swiss mouse peritoneal macrophages; assay type: toxicity, cell-based; settings: read-out: Ratio CC50/EC50
[5] = Selectivity index, ratio of CC50 for cytotoxicity against human MRC5 cells to EC50 for Trypanosoma cruzi Tulahuen CL2 amastigotes expressing beta galactosidase infected in human MRC5 cells; assay type: toxicity, cell-based; settings: read-out: Ratio CC50/EC50
[6] = tested on: Trypanosoma cruzi; assay: Antitrypanosomal activity against nifurtimox-sensitive Tulahuen CL2 amastigotes expressing beta galactosidase infected in human MRC5 cells assessed as inhibition of parasite growth using chlorophenol red beta-D-galactopyranoside as substrate and measured after 7 days by spectrophotometric analysis; assay type: functional, organism-based; settings: Tulahuen CL2, MRC5, 168 h

Row | SMILES | CC50 at 120 h [1] | EC50 [2] | CC50 at 72 h [3] | selectivity ratio [4] | selectivity ratio [5] | EC50 ([6]; read-out: EC50) | EC50 [6]
1 | Cc1ncnc2c1c(-c1ccoc1)cn2[C@@H]1O[C@H](CO)[C@@H](O)[C@H]1O | > 64 µM | > 64 µM | > 64 µM |  |  |  | 
2 | Cc1ncnc2c1c(-c1cccs1)cn2[C@@H]1O[C@H](CO)[C@@H](O)[C@H]1O | 32 µM | 12.7 µM |  | 2.5 |  |  | 
3 | Cc1ncnc2c1c(-c1ccsc1)cn2[C@@H]1O[C@H](CO)[C@@H](O)[C@H]1O | > 64 µM | > 64 µM | > 64 µM |  |  |  | 
4 | Cc1ncnc2c1c(-c1cc3ccccc3o1)cn2[C@@H]1O[C@H](CO)[C@@H](O)[C@H]1O | 32 µM | 20.3 µM | 45.8 µM | 1.58 |  |  | 
5 | Cc1ncnc2c1c(-c1ccccn1)cn2[C@@H]1O[C@H](CO)[C@@H](O)[C@H]1O | > 64 µM | 2.3 µM | > 64 µM | > 27 | > 39 | 1.6 µM | 
6 | Cc1ncnc2c1c(-c1cnccn1)cn2[C@@H]1O[C@H](CO)[C@@H](O)[C@H]1O | > 64 µM | 10.1 µM | > 64 µM | > 6.3 |  |  | 
7 | Cc1ncnc2c1c(-c1ccc(Cl)nc1)cn2[C@@H]1O[C@H](CO)[C@@H](O)[C@H]1O | > 64 µM | > 64 µM | > 64 µM |  |  |  | 
8 | COc1ccccc1-c1cn([C@@H]2O[C@H](CO)[C@@H](O)[C@H]2O)c2ncnc(C)c12 | > 64 µM | 21.1 µM | > 64 µM | > 3 |  |  | 
9 | Cc1ncnc2c1c(-c1ccc[nH]1)cn2[C@@H]1O[C@H](CO)[C@@H](O)[C@H]1O | 32 µM | 0.35 µM | 12.9 µM | 91.4 | 19 | 0.68 µM | 
10 | Cc1ncnc2c1c(-c1ccccc1N)cn2[C@@H]1O[C@H](CO)[C@@H](O)[C@H]1O | > 64 µM | > 64 µM | > 64 µM |  |  |  | 
11 | Cc1ncnc2c1c(-c1cccc3c1N=CC3)cn2[C@@H]1O[C@H](CO)[C@@H](O)[C@H]1O | > 64 µM | 2.1 µM | > 64 µM | > 30 | > 19 | 3.3 µM | 
12 | Cc1ncnc2c1c(-c1ccccc1[N+](=O)[O-])cn2[C@@H]1O[C@H](CO)[C@@H](O)[C@H]1O | > 64 µM | > 64 µM | > 64 µM |  |  |  | 
13 | COc1ccnc(-c2cn([C@@H]3O[C@H](CO)[C@@H](O)[C@H]3O)c3ncnc(C)c23)c1 | > 64 µM | > 64 µM | > 64 µM |  |  |  | 
14 | Cc1ncnc2c1c(-c1cccc3cccnc13)cn2[C@@H]1O[C@H](CO)[C@@H](O)[C@H]1O | > 64 µM | 3.7 µM | > 64 µM | > 17 | > 6.7 | 9.6 µM | 
15 | Cc1ncnc2c1c(-c1ccc(Cl)c(F)c1)cn2[C@@H]1O[C@H](CO)[C@@H](O)[C@H]1O | > 64 µM | 7.9 µM |  | > 8 |  |  | 
16 | Cc1ncnc2c1c(/C=C/c1ccccn1)cn2[C@@H]1O[C@H](CO)[C@@H](O)[C@H]1O | > 64 µM | 19 µM | > 64 µM | > 3.37 |  |  | 
17 | Cc1ncnc2c1c(-c1ccc(Cl)cc1)cn2[C@@H]1O[C@H](CO)[C@@H](O)[C@H]1O | > 64 µM | 16.1 µM |  | > 3.5 |  |  | 
18 | Cc1ncnc2c1c(Sc1ccccc1)cn2[C@@H]1O[C@H](CO)[C@@H](O)[C@H]1O | > 64 µM | > 64 µM | > 64 µM |  |  |  | 
19 | Cc1ncnc2c1c(CCc1ccccn1)cn2[C@@H]1O[C@H](CO)[C@@H](O)[C@H]1O | > 64 µM | > 64 µM | > 64 µM |  |  |  | 
20 | Cc1ncnc2c1c(-c1cccnc1)cn2[C@@H]1O[C@H](CO)[C@@H](O)[C@H]1O | > 64 µM | 22.6 µM | > 64 µM | > 2.8 |  |  | 
21 | Cc1ncnc2c1c(-c1cccc(F)n1)cn2[C@@H]1O[C@H](CO)[C@@H](O)[C@H]1O | > 64 µM | > 64 µM | > 64 µM |  |  |  | 
22 | Cc1ncnc2c1c(-c1cc3ccccc3[nH]1)cn2[C@@H]1O[C@H](CO)[C@@H](O)[C@H]1O | > 64 µM | 1.7 µM | 14.8 µM | > 36 | 24 | 0.62 µM | 

Row | SMILES | CC50 at 120 h [1] | EC50 [2] | CC50 at 72 h [3] | selectivity ratio [4] | selectivity ratio [5] | EC50 ([6]; read-out: EC50) | EC50 [6]
23 | COc1cc(-c2cn([C@@H]3O[C@H](CO)[C@@H](O)[C@H]3O)c3ncnc(C)c23)ccc1Cl | > 64 µM | 8.76 µM |  | > 7.3 |  |  | 
24 | Cc1ncnc2c1c(-c1cc3ccccc3cn1)cn2[C@@H]1O[C@H](CO)[C@@H](O)[C@H]1O | > 64 µM | > 64 µM | > 64 µM |  |  |  | 
25 | Cc1ncnc2c1c(-c1cccc3ccn(C)c13)cn2[C@@H]1O[C@H](CO)[C@@H](O)[C@H]1O | > 64 µM | > 64 µM | > 64 µM |  |  |  | 
26 | Cc1ncnc2c1c(-c1ccc(C(F)(F)F)cc1)cn2[C@@H]1O[C@H](CO)[C@@H](O)[C@H]1O | > 64 µM | 11.3 µM |  | > 5.6 |  |  | 
27 | CSc1ccccc1-c1cn([C@@H]2O[C@H](CO)[C@@H](O)[C@H]2O)c2ncnc(C)c12 | > 64 µM | > 64 µM | > 64 µM |  |  |  | 
28 | Cc1ncnc2c1c(C1=CCOCC1)cn2[C@@H]1O[C@H](CO)[C@@H](O)[C@H]1O | > 64 µM | 24.5 µM |  |  |  |  | 
29 | Cc1ncnc2c1c(-c1cccc3c1oc1ccccc13)cn2[C@@H]1O[C@H](CO)[C@@H](O)[C@H]1O | > 64 µM | 50.8 µM | 12.7 µM | > 1.2 |  |  | 
30 | Cc1ncnc2c1c(-c1cncnc1)cn2[C@@H]1O[C@H](CO)[C@@H](O)[C@H]1O | > 64 µM | 6.5 µM | > 64 µM | > 9.9 | > 8.8 | 7.3 µM | 
31 | Cc1ncnc2c1c(-c1ccc(N)cc1)cn2[C@@H]1O[C@H](CO)[C@@H](O)[C@H]1O | > 64 µM | 6.7 µM |  | > 9.5 |  |  | 
32 | Cc1ncnc2c1c(-c1ccc(S(C)(=O)=O)cc1)cn2[C@@H]1O[C@H](CO)[C@@H](O)[C@H]1O | > 64 µM | 6.7 µM |  | > 9.5 |  |  | 
33 | Cc1ncnc2c1c(-c1cc[nH]n1)cn2[C@@H]1O[C@H](CO)[C@@H](O)[C@H]1O | > 64 µM | 8 µM | 27.9 µM | > 8 |  |  | 
34 | Cc1ncnc2c1c(-c1cccc(Cl)n1)cn2[C@@H]1O[C@H](CO)[C@@H](O)[C@H]1O | > 64 µM | 14.2 µM | > 64 µM | > 4.51 |  |  | 
35 | Cc1ncnc2c1c(-c1ccc(Cl)cn1)cn2[C@@H]1O[C@H](CO)[C@@H](O)[C@H]1O | > 64 µM | 0.4 µM | 26.3 µM | > 160 | 53 | 0.49 µM | 
36 | Cc1ncnc2c1c(-c1ccncc1)cn2[C@@H]1O[C@H](CO)[C@@H](O)[C@H]1O | > 64 µM | > 64 µM | > 64 µM |  |  |  | 
37 | Cc1ncnc2c1c(-c1ccccc1F)cn2[C@@H]1O[C@H](CO)[C@@H](O)[C@H]1O | > 64 µM | > 64 µM | > 64 µM |  |  |  | 
38 | Cc1ncnc2c1c(-c1ccc3ccccc3n1)cn2[C@@H]1O[C@H](CO)[C@@H](O)[C@H]1O | > 64 µM | > 64 µM | > 64 µM |  |  |  | 
39 | Cc1ncnc2c1c(-c1ncccn1)cn2[C@@H]1O[C@H](CO)[C@@H](O)[C@H]1O | > 64 µM | 8.2 µM | > 64 µM | > 7.8 | > 10 | 5.9 µM | 
40 | Cc1ncnc2c1c(-c1nccs1)cn2[C@@H]1O[C@H](CO)[C@@H](O)[C@H]1O | 32 µM | 2.07 µM | 6.06 µM | 15.5 | 9.2 | 0.66 µM | 
41 | Cc1ncnc2c1c(-c1ccccc1Cl)cn2[C@@H]1O[C@H](CO)[C@@H](O)[C@H]1O | > 64 µM | 20.4 µM | > 64 µM | > 3.1 |  |  | 
42 | Cc1ncnc2c1c(-c1cnn(C)c1)cn2[C@@H]1O[C@H](CO)[C@@H](O)[C@H]1O | > 64 µM | 8 µM | > 64 µM | > 8 |  |  | 
43 | Oc1ncnc2[nH]ncc12 [ALLOPURINOL] | > 64 µM | 3.5 µM | > 64 µM | > 18 |  |  | 
44 | O=C(Cn1ccnc1[N+](=O)[O-])NCc1ccccc1 [BENZNIDAZOLE] |  |  |  |  |  |  | 2.28 µM
